Experimental data published in patent US5464825A, “Raising glutathione equivalent levels using N-acyl glutathione monoesters” (Cornell Research Foundation, Inc., priority 1994, dated 1995).
Like-named read-outs stand apart in the source and are kept apart here. *1 amine or outer side, *2 acyl side, *3 side chain or, on linkers, in order; H or OH if unused. Where a SMILES comes first, the peptide text is derived from it. [ ]: non-standard residue; d: D form. γGlu = O=C(O)[C@H](CCC(=O)[*:2])N[*:1]

[1] = kidney, 1 hour after 10 mmol/kg i.p., fasted BSO treated mice
[2] = kidney, 2.5 hours after 10 mmol/kg i.p., fasted BSO treated mice
[3] = liver, 1 hour after 10 mmol/kg i.p., fasted BSO treated mice
[4] = liver, 2.5 hours after 10 mmol/kg i.p., fasted BSO treated mice
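Also: mice fasted 18 h, given 10 mM BSO in drinking water plus BSO 2 mmol/kg 13 h and 3 h before dosing, controls got 0.9% NaCl, mean ± SD.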

Method: The N-acetyl GSH monoethyl ester was used. A solution of N-acetyl GSH monoester was prepared in aseptic water. Mice weighing 18 to 25 grams, obtained from Taconic Farms, Inc., (TAC:(SWFBR)), were fasted for 18 hours before injection with NAGEE. At the time of fasting, the drinking water contains 10 mM L-buthionine-SR-sulfoximine (BSO). All mice are injected with L-buthionine-SR-sulfoximine (BSO) (2 millimoles per kilogram; intraperitoneally) 13 hours before NAGEE injection. The mice are injected again with L-buthionine-SR-sulfoxminie (BSO) (2 millimoles per kg; subcutaneously) 3 hours prior to NAGEE injection. NAGEE or GSH are administered intraperitoneally (10 mmol/kg; the pH of the solution is adjusted to about 7 with sodium hydroxide). The GSH solution also contains ethanol at 10 mmol/kg. Control mice are given equivalent volumes of 0.9% sodium chloride. The mice were then injected intraperitoneally with the N-acetyl GSH monoethyl ester in a dose of 10 millimoles per kilogram. […] Using groups of 4 or 5 mice each, values are given as means plus or minus S.D.

Question: With `N[C@@H](CCC(=O)N[C@@H](CS)C(=O)NCC(=O)O)C(=O)O` [GSH, L-γ-glutamyl-L-cysteinylglycine, reference compound] as the compound, how does the “effect on glutathione levels in the kidney as compared to the controls (in words)” value (kidney, 10 mmol/kg i.p., fasted BSO treated mice) read?
Answer: only a slight effect

Question: And the “GSH level, kidney” value [1]?
Answer: 1.9 µmol/g

Question: And the “GSH level, kidney” value [2]?
Answer: 1.01 µmol/g

Question: And the “GSH level, liver” value [3]?
Answer: 1.38 µmol/g

Question: And the “GSH level, liver” value [4]?
Answer: 0.45 µmol/g

Question: With `CCOC(=O)CNC(=O)[C@H](CS)NC(=O)CC[C@H](NC(C)=O)C(=O)O` [NAGEE, N-acetyl glutathione monoethyl ester] (Ac-[γGlu]-Cys-Gly-OEt) as the compound, how does the “levels of GSH monoethyl ester, NAGEE and NAG found (in words)” value (kidney, 10 mmol/kg i.p.) read?
Answer: substantial levels

Question: What about the “GEE level, kidney” value [1] of the same compound?
Answer: 0.92 µmol/g

Question: And the “GSH equivalents total, kidney” value [1]?
Answer: 10.51 µmol/g

Question: What about the “GSH level, kidney” value [1] of the same compound?
Answer: 1.6 µmol/g

Question: What about the “NAG level, kidney” value [1] of the same compound?
Answer: 1.43 µmol/g

Question: What about the “NAGEE level, kidney” value [1] of the same compound?
Answer: 5.54 µmol/g

Question: What about the “GEE level, kidney” value [2] of the same compound?
Answer: 0.52 µmol/g

Question: And the “GSH equivalents total, kidney” value [2]?
Answer: 5.67 µmol/g

Question: What about the “GSH level, kidney” value [2] of the same compound?
Answer: 2.3 µmol/g

Question: And the “NAG level, kidney” value [2]?
Answer: 0.79 µmol/g

Question: And the “NAGEE level, kidney” value [2]?
Answer: 2.10 µmol/g

Question: And the “GSH level of the kidney (in words, FIGS. 1 and 2)” value (kidney, 2.5 hours after administration, 10 mmol/kg i.p.)?
Answer: increased substantially

Question: What about the “GSH level of the kidney (in words)” value (kidney, at 5 hours, 10 mmol/kg i.p.) of the same compound?
Answer: declined

Question: And the “GSH mono-ethyl ester found in the liver (in words)” value (liver, 10 mmol/kg i.p.)?
Answer: a little

Question: What about the “GEE level, liver” value [3] of the same compound?
Answer: 0.18 µmol/g

Question: And the “GSH equivalents total, liver” value [3]?
Answer: 14.28 µmol/g

Question: And the “GSH level, liver” value [3]?
Answer: 0.45 µmol/g

Question: And the “NAG level, liver” value [3]?
Answer: 4.80 µmol/g

Question: What about the “NAGEE level, liver” value [3] of the same compound?
Answer: 8.85 µmol/g

Question: What about the “GEE level, liver” value [4] of the same compound?
Answer: 0.15 µmol/g

Question: What about the “GSH equivalent total, liver” value [4] of the same compound?
Answer: 7.17 µmol/g

Question: And the “GSH level, liver” value [4]?
Answer: 0.71 µmol/g

Question: What about the “NAG level, liver” value [4] of the same compound?
Answer: 3.38 µmol/g

Question: And the “NAGEE level, liver” value [4]?
Answer: 2.93 µmol/g

Question: And the “liver levels of N-acetyl GSH (in words)” value (liver, at 1 and 2.5 hours, 10 mmol/kg i.p.)?
Answer: increased dramatically

Question: What about the “liver levels of GSH (in words)” value (liver, at 2.5 hours, 10 mmol/kg i.p.) of the same compound?
Answer: increased moderately
